# Data published in patent US12612363B2, “Recrystallisation of 5-methoxy-N,N-dimethyltryptamine(5-MeO-DMT)” (GH RESEARCH IRELAND LIMITED, priority 2019, dated 2026).
# Experiment: Solubility screen of 5-MeO-DMT in solvents at room temperature and reflux
# Details: for solubility: thermodynamic from solid
# Description: A solubility screen of 5-MeO-DMT was performed on a number of solvents at both room temperature and reflux.
compound,measurement,setting,value
"COc1ccc2[nH]cc(CCN(C)C)c2c1 [5-MeO-DMT, 5-Methoxy-N,N-dimethyltryptamine]",solubility,"2-methyltetrahydrofuran, organic solvent or mixture, 5-MeO-DMT Solubility Ambient, solvent 2-Methyltetrahydrofuran (2-MeTHF), ambient (room temperature)",250 mg/mL
same,solubility,"acetone, organic solvent or mixture, 5-MeO-DMT Solubility Ambient, solvent Acetone, ambient (room temperature)",530 mg/mL
same,solubility,"ethanol, organic solvent or mixture, 5-MeO-DMT Solubility Ambient, solvent Ethanol, ambient (room temperature)",340 mg/mL
same,solubility,"ethyl acetate, organic solvent or mixture, 5-MeO-DMT Solubility Ambient, solvent Ethyl Acetate, ambient (room temperature)",260 mg/mL
same,solubility,"heptanes, organic solvent or mixture, 5-MeO-DMT Solubility Ambient, solvent Heptanes, ambient (room temperature)",< 50 mg/mL
same,solubility,"heptanes, organic solvent or mixture, 5-MeO-DMT Solubility Reflux, solvent Heptanes, reflux",< 50 mg/mL
same,solubility (in words),in MTBE at room temperature,not observed to be soluble
same,solubility (in words),in MTBE when the temperature of the solvent was increased,very soluble
same,solubility (in words),in heptanes,Poor solubility
same,solubility (in words),in water,Poor solubility
same,solubility,"isopropanol, organic solvent or mixture, 5-MeO-DMT Solubility Ambient, solvent Isopropanol (IPA), ambient (room temperature)",180 mg/mL
same,solubility,"isopropyl acetate, organic solvent or mixture, 5-MeO-DMT Solubility Ambient, solvent Isopropyl acetate (IPAc), ambient (room temperature)",210 mg/mL
same,solubility,"methyl tert-butyl ether, organic solvent or mixture, 5-MeO-DMT Solubility Ambient, solvent Methyl tert-butyl ether (MTBE), ambient (room temperature)",< 50 mg/mL
same,solubility,"methyl tert-butyl ether, organic solvent or mixture, 5-MeO-DMT Solubility Reflux, solvent Methyl tert-butyl ether (MTBE), reflux",420 mg/mL
same,5-MeO-DMT Solubility Ambient (vols.),"solvent 2-Methyltetrahydrofuran (2-MeTHF), ambient (room temperature)",4.0 vols.
same,5-MeO-DMT Solubility Ambient (vols.),"solvent Acetone, ambient (room temperature), volumes of solvent for complete dissolution of 200 mg",1.9 vols.
same,5-MeO-DMT Solubility Ambient (vols.),"solvent Ethanol, ambient (room temperature)",2.9 vols.
same,5-MeO-DMT Solubility Ambient (vols.),"solvent Ethyl Acetate, ambient (room temperature)",3.9 vols.
same,5-MeO-DMT Solubility Ambient (vols.),"solvent Heptanes, ambient (room temperature)",>20 vols.
same,5-MeO-DMT Solubility Reflux (vols.),"solvent Heptanes, reflux",>20 vols.
same,5-MeO-DMT Solubility Ambient (vols.),"solvent Isopropanol (IPA), ambient (room temperature)",5.6 vols.
same,5-MeO-DMT Solubility Ambient (vols.),"solvent Isopropyl acetate (IPAc), ambient (room temperature)",4.8 vols.
same,5-MeO-DMT Solubility Ambient (vols.),"solvent Methyl tert-butyl ether (MTBE), ambient (room temperature)",>20 vols.
same,5-MeO-DMT Solubility Reflux (vols.),"solvent Methyl tert-butyl ether (MTBE), reflux",2.4 vols.
same,5-MeO-DMT Solubility Ambient (vols.),"solvent Toluene, ambient (room temperature)",5.1 vols.
same,5-MeO-DMT Solubility Ambient (vols.),"solvent Water, ambient (room temperature)",>20 vols.
same,5-MeO-DMT Solubility Reflux (vols.),"solvent Water, reflux",>20 vols.
same,solubility,"toluene, organic solvent or mixture, 5-MeO-DMT Solubility Ambient, solvent Toluene, ambient (room temperature)",200 mg/mL
same,solubility,"water, 100 °C, 5-MeO-DMT Solubility Reflux, solvent Water, reflux",< 50 mg/mL
same,solubility,"water, 5-MeO-DMT Solubility Ambient, solvent Water, ambient (room temperature)",< 50 mg/mL
